Reference: patent publication US11845773B2, “Trehalose analogues” (Central Michigan University, priority 2016, dated 2023)

Key:
[1] = Water solubility of reporters
[2] = system: Msmeg; experiment: Metabolic labeling of Msmeg with TMM reporters 1-6 (CuAAC, SPAAC, tetrazine ligation or one-step); conditions: 4 h; for concentration of labeling saturation: Msmeg and Cglut, range up to 250 μM, flow cytometry (FIG. 62)
[3] = system: M. smegmatis mc2155 (Msmeg); experiment: Metabolic labeling of Msmeg with AlkTMM probes, CuAAC with Az488, flow cytometry / microscopy; format: cell-based, Mycobacterium smegmatis; design: concentration at which labeling was saturable: unit not given here; conditions: for labeling after only a few seconds of culture time / labeling features in time-course fluorescence microscopy: Msmeg; for change in labeling between log- and stationary-phase Msmeg: growth phase dependence; for labeling of Msmeg: species specificity, flow cytometry and microscopy
[4] = system: Msmeg; experiment: Growth of Msmeg during treatment with probes; format: cell-based, Mycobacterium smegmatis; conditions: up to 250 μM
Protocol: Plates were incubated at 37° C. […] Tubes were incubated at 37° C.

[5] = system: Msmeg; experiment: Competition of AlkTMM labeling in Msmeg with unlabeled probes; format: cell-based, Mycobacterium smegmatis; conditions: competitor 250, 1000, 5000 μM, 4 h; O-AlkTMM 50 μM with O—C7TMM, N-AlkTMM 100 μM with N—C7TMM
Protocol: Competition of AlkTMM labeling in Msmeg. For O-AlkTMM competition experiments, Msmeg was cultured in 7H9 liquid medium in 96-well plates in the presence of O-AlkTMM (50 μM) and its unlabeled version, O—C7TMM, at concentrations of 250, 1000, and 5000 μM (or without competitor) for 4 h. For N-AlkTMM competition experiments, Msmeg was cultured in 7H9 liquid medium in the presence of N-AlkTMM (100 μM) and its unlabeled version, […], at concentrations of 250, 1000, and 5000 μM (or without competitor) for 4 h. Cells were subjected to CuAAC and analyzed by flow cytometry as described above.

[6] = system: Ag85; experiment: Effect of ebselen on AlkTMM labeling in Msmeg (Ag85 dependency); format: cell-based, Mycobacterium smegmatis; conditions: ebselen 50 μg/mL 8 h; for decrease of labeling upon treatment of Msmeg with ebselen: then reporter 4 h (O-AlkTMM 50 μM; N-AlkTMM 100 μM)
Protocol: Effect of ebselen on AlkTMM labeling in Msmeg. Msmeg was cultured in 7H9 liquid medium in 96-well plates in the presence of ebselen (50 μg/mL) for 8 hours, after which the chemical reporter (O-AlkTMM, 50 μM; N-AlkTMM, 100 μM; 6-TreAz, 25 μM) was added and the cells were incubated for another 4 hours. Cells were subjected to CuAAC and analyzed by flow cytometry as described above.

[7] = system: SugABC-LpqY trehalose transporter; experiment: Labeling in Msmeg wild type versus Msmeg ΔsugC; format: cell-based, Mycobacterium smegmatis; conditions: Msmeg wild type vs ΔsugC
[8] = system: Msmeg PG-AGM and extractable lipids fractions; experiment: Cellular fractionation and fluorescence analysis of labeled Msmeg; format: cell-based, Mycobacterium smegmatis; conditions: for distribution of fluorescence between PG-AGM and extractable lipids fractions: Msmeg 4 h, O-AlkTMM 50 μM, N-AlkTMM 250 μm, 6-TreAz 25 μM, CHCl3/CH3OH extraction
Protocol: Cellular fractionation and analysis of labeled Msmeg. 10 mL Msmeg cultures were grown in 7H9 liquid medium in the presence of O-AlkTMM (50 μM), N-AlkTMM (250 μm) or left untreated in 15 mL conical tubes. A higher concentration of N-AlkTMM was used to maximize labeling efficiency. In parallel, cultures were grown in the presence of 6-TreAz (25 μM) or left […] untreated. Cells were incubated with shaking for 4 h at 37° C. until reaching late-log phase, then pelleted by centrifugation and washed with PBSB three times as described above. For O- and N-AlkTMM-labeled cells and their untreated control, the above-described click chemistry procedure was carried out with Az488 at a reaction volume of 500 μL. For 6-TreAz-labeled cells and their untreated control, the above-described click chemistry procedure was carried out with Alk488 at a reaction volume of 500 μL. After the click reactions, cells were pelleted by centrifugation and washed with PBSB three times as described above. Aliquots were removed and resuspended in PBS 1× for measurement of OD600 (for normalization of fluorescence values) and analysis by flow cytometry as shown in FIG. 13. The remainder of the cells were resuspended in 1 mL HPLC grade CH3OH and transferred to a glass screw-cap culture tube containing 2 mL CHCl3 and equipped with a stir bar. The CHCl3/CH3OH (2:1) cell suspension was stirred overnight to accomplish separation of the soluble extractable lipids from the insoluble PG-AGM material. The insoluble material was pelleted by centrifugation (3,600 rpm, 10 minutes, room temperature) and washed two times with CHCl3/CH3OH (2:1). The CHCl3/CH3OH (2:1) supernatants containing soluble extractable lipids were combined in a 20 mL glass scintillation vial and dried by rotary evaporation. Both fractions were subjected to TLC analysis as described in FIG. 12 to confirm separation of the extractable lipids from the PG-AGM material. Both fractions were then resuspended in 1 mL 5% aqueous tetrabutylammonium hydroxide (TBAH) in glass screw-cap culture tubes, sealed and then stirred overnight at 100° C. to saponify and solubilize the samples. Next, the samples were cooled to room temperature and 200 μL aliquots were transferred to a black flat-bottom 96-well plate.

[9] = system: C. glutamicum; experiment: AlkTMM labeling specificity, C. glutamicum; format: cell-based, Corynebacterium glutamicum; conditions: species specificity, flow cytometry and microscopy
[10] = system: Escherichia coli; experiment: AlkTMM labeling specificity, E. coli; format: cell-based; conditions: species specificity, flow cytometry and microscopy
[11] = system: Bacillus subtilis; experiment: AlkTMM labeling specificity, B. subtilis; format: cell-based; conditions: species specificity, flow cytometry and microscopy
[12] = system: Cglut; experiment: Metabolic labeling of Cglut with TMM reporters 4-6; conditions: flow cytometry

Compound: C#CCCC(=O)OCC1O[C@H](O[C@H]2OC(CO)[C@@H](O)C(O)C2O)C(O)C(O)[C@@H]1O (stereo partly drawn) [O-AlkTMM-C5, 6-O-(4-pentynoyl)-α,α-D-trehalose]
- water solubility [1]: conveniently water-soluble

Compound: [N-]=[N+]=NCCCCCCCCCC(=O)OCC1O[C@H](O[C@H]2OC(CO)[C@@H](O)C(O)C2O)C(O)C(O)[C@@H]1O (stereo partly drawn) [O-AzTMM-C10, 6-O-(10-azidodecanoyl)-α,α-D-trehalose]
- concentration of labeling saturation [2]: approximately 25 μM

Compound: C#CCCCCC(=O)OCC1O[C@H](O[C@H]2OC(CO)[C@@H](O)C(O)[C@H]2O)C(O)[C@@H](O)[C@@H]1O (stereo partly drawn) [O-AlkTMM, 6-O-(6-heptynoyl)-α,α-D-trehalose]
- labeling after only a few seconds of culture time [3]: significant labeling could be detected
- labeling features in time-course fluorescence microscopy [3]: intensely fluorescent septa in dividing cells, highly polar labeling for short pulses, and diffuse surface labeling for longer pulses
- concentration at which labeling was saturable ([3]; Msmeg 14 h, Az488 CuAAC, flow cytometry): 50
- signal-to-noise ratio (S/N) of labeling ([3]; Msmeg cultured 14 h, Az488 CuAAC, flow cytometry): > 20
- change in labeling between log- and stationary-phase Msmeg [3]: significant decrease
- labeling of Msmeg [3]: strong labeling of the cell surface
- growth impairment of Msmeg [4]: no growth impairment
- competition of labeling signal by unlabeled version of the probe [5]: Dose-dependent competition of signal
- decrease of labeling upon treatment of Msmeg with ebselen [6]: approximately 70%
- dependence of incorporation on trehalose transporter SugABC-LpqY [7]: not dependent on the trehalose transporter SugABC-LpqY
- distribution of fluorescence between PG-AGM and extractable lipids fractions [8]: nearly all of the fluorescence from O-AlkTMM treated Msmeg was present in the PG-AGM fraction
- fraction of probe reacting with TMM to form alkyne-labeled TDM ([8]; estimated from extractable lipids fluorescence, FIG. 7): ≤ 10%
- labeling of C. glutamicum [9]: strong labeling of the cell surface
- labeling of E. coli [10]: no labeling above background
- labeling of B. subtilis [11]: no labeling above background
- water solubility [1]: conveniently water-soluble

Compound: 6-O-(10-undecynoyl)-α,α-D-trehalose [O-AlkTMM-C11]
- dependence of labeling on acyl chain length ([2]; Msmeg, 50 μM reporter, azido-488 CuAAC, flow cytometry): small increase

Compound: O=C(CCCCCCCCCNC(=S)Nc1ccc2c(c1)C(=O)OC21c2ccc(O)cc2Oc2cc(O)ccc21)OC[C@H]1O[C@H](O[C@H]2O[C@H](CO)[C@@H](O)[C@H](O)[C@H]2O)[C@H](O)[C@@H](O)[C@@H]1O [O-FITC-TMM, 6-O-(10-[(fluorescein-5-yl)thioureido]decanoyl)-α,α-D-trehalose]
- incorporation into Cglut relative to Msmeg [12]: much more efficiently than in Msmeg
- concentration of labeling saturation [2]: ≥ 100 µM

Compound: [N-]=[N+]=NC[C@H]1O[C@H](O[C@H]2O[C@H](CO)[C@@H](O)[C@H](O)[C@H]2O)[C@H](O)[C@@H](O)[C@@H]1O [6-TreAz, reference compound]
- effect of ebselen treatment on Msmeg labeling ([6]; then 6-TreAz 25 μM 4 h): did not reduce
- distribution of fluorescence between PG-AGM and extractable lipids fractions [8]: signal exclusively in the extractable lipids fraction

Compound: C#CCCCCC(=O)NCC1O[C@H](O[C@H]2OC(CO)[C@@H](O)C(O)[C@H]2O)C(O)[C@@H](O)[C@@H]1O (stereo partly drawn) [N-AlkTMM, N-(6-heptynoyl)-6-amino-6-deoxy-α,α-D-trehalose]
- labeling after only a few seconds of culture time [3]: significant labeling could be detected
- labeling features in time-course fluorescence microscopy [3]: intensely fluorescent septa in dividing cells, highly polar labeling for short pulses, and diffuse surface labeling for longer pulses
- S/N reached under the conditions tested ([3]; Msmeg 14 h, 1-250 μm probe, Az488 CuAAC, flow cytometry): > 150
- signal lower than O-AlkTMM at the same concentrations ([3]; Msmeg 14 h, flow cytometry): approximately 10 fold
- change in labeling between log- and stationary-phase Msmeg [3]: significant decrease
- labeling of Msmeg [3]: strong labeling of the cell surface
- growth impairment of Msmeg [4]: no growth impairment
- competition of labeling signal by unlabeled version of the probe [5]: Dose-dependent competition of signal
- decrease of labeling upon treatment of Msmeg with ebselen [6]: ~85%
- dependence of incorporation on trehalose transporter SugABC-LpqY [7]: not dependent on the trehalose transporter SugABC-LpqY
- distribution of fluorescence between PG-AGM and extractable lipids fractions [8]: signal only in the extractable lipids fraction
- labeling of C. glutamicum [9]: strong labeling of the cell surface
- labeling of E. coli [10]: no labeling above background
- labeling of B. subtilis [11]: no labeling above background

Compound: O=C(CCCCCCCCCNC(=O)OC1CC/C=C/CCC1)OC[C@H]1O[C@H](O[C@H]2O[C@H](CO)[C@@H](O)[C@H](O)[C@H]2O)[C@H](O)[C@@H](O)[C@@H]1O (stereo partly drawn) [O-TCO-TMM, 6-O-(10-{N—[(E)-cylcooct-4-en1yloxy]carbonyl}aminodecanoyl)-α,α-D-trehalose]
- incorporation into Cglut relative to Msmeg [12]: much more efficiently than in Msmeg
- concentration of labeling saturation [2]: approximately 25 μM
